How the values were obtained:
clinical = assay type: in vivo, human; conditions: for Cmax / AUC / Tmax: endothall after LB-100 2.33 mg/m^2
Protocol: The main objective was to determine the safety, tolerability, and maximum tolerated dose of LB-100 given intravenously daily for three consecutive days every 3 weeks. The secondary objectives were to document any evidence of potential anti-tumor activity and obtain pharmacokinetic data on LB-100 and a metabolite, endothall, in patients receiving LB-100 at the MTD (Quang et al., 2016).
The plasma concentrations of LB-100 and endothall were measured (Quang et al., 2016) prior to and over 4 hours after completion of the 2-hour infusion at the MTD of 2.33 mg/m2 of LB-100 on day 1 in one patient and on day 1 and 3 in two patients. […] Plasma concentrations of endothall were low throughout the infusion, being below the lower limit of detection (5 ng/mL) in one patient.

solid tumor = conditions: cited from earlier work
[1] = human, in vivo; cited from earlier work

With `O=C(O)[C@@H]1[C@H](C(=O)O)[C@H]2CC[C@@H]1O2` [endothall] as the compound, how does the Cmax (clinical; subject 001-0030, day 1, N-D = below lower limit of quantification (5 ng/ml)) read?
Its Cmax is “N-D^a”.

And the Cmax (clinical; subject 001-0030, day 3, N-D = below lower limit of quantification (5 ng/ml))?
Its Cmax is “N-D^a”.

What about the AUC (clinical; subject 002-0028, day 1) of the same compound?
The AUC was 22 ng·h/mL.

And the Cmax (clinical; subject 002-0028, day 1)?
The Cmax was 11.5 ng/mL.

And the Tmax (clinical; subject 002-0028, day 1)?
Its Tmax is 4 h.

What about the AUC (clinical; subject 002-0028, day 3) of the same compound?
The AUC was 143 ng·h/mL.

And the Cmax (clinical; subject 002-0028, day 3)?
Its Cmax is 34.3 ng/mL.

What about the Tmax (clinical; subject 002-0028, day 3) of the same compound?
Its Tmax is 4 h.

And the AUC (clinical; subject 003-0029, day 1)?
Its AUC is 28 ng·h/mL.

And the Cmax (clinical; subject 003-0029, day 1)?
The Cmax was 14.8 ng/mL.

What about the Tmax (clinical; subject 003-0029, day 1) of the same compound?
The Tmax was 4 h.

What about the “plasma concentration of endothall” value (clinical; one patient, after LB-100 2.33 mg/m2, lower limit of detection) of the same compound?
Its value is < 5 ng/mL.

What about the “maximal concentration of endothall” value (clinical; other two patients, last sampling time point (4 h)) of the same compound?
The value was 34.7 ng/mL.

For `C[C@@](O)(/C=C/[C@H]1CC=CC(=O)O1)[C@@H](C[C@@H](O)\C=C/C=C\C=C\CO)OP(=O)(O)O` [fostriecin], which “dose-limiting toxicity (DLT)” value (solid tumor; in vivo) is on record?
The value was “without dose-limiting toxicity”.

What about the disease stability (solid tumor; of 46 solid tumor patients) of the same compound?
The disease stability was 16 (34.8%) patients (%).

With “ipilimumab: human cytotoxic T-lymphocyte antigen 4 (CTLA-4)-blocking antibody” as the compound, how does the incidence of death [1] read?
The incidence of death was 2.1%.

And the “patients with grade 3 or 4 adverse events” value [1]?
The value was “up to 15%”.
